Among the data in patent publication US20240209011A1, “HETEROAROMATIC PHOSPHONIUM SALTS FOR TREATING CANCER” (FLORATEK PHARMA S.A., priority 2021, published 2024) are IC50 and Kd values, retold here.

In assay [1] the test system is SCLC doxorubicin resistant cell line H69AR. The experiment in a line: Cell viability assay (CellTiter-Blue/CellTiter-Glow). The assay is classed as cell-based. The note with it: Homo sapiens, absolute IC50, 72 h. The essentials:
(§1)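 Tumour cells were plated at 4,000-20,000 cells/well (up to 60,000 for haematological lines) in RPMI 1640 or DMEM with 10% FCS, then exposed 24 h later to compounds for 72 h at 37 °C. Viability was read by CellTiter-Blue fluorescence or CellTiter-Glo luminescence; absolute IC50 taken at T/C=50%.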

The next assay has as its system ZR-75-1. Described as above. It is filed as cell-based. The note with it: Homo sapiens; breast carcinoma cell line ZR-75-1; absolute IC50; 72 h. The essentials:
as §1

Another assay concerns CHP-134. Described as above. It is filed as cell-based. As to conditions: Homo sapiens; brain carcinoma cell line CHP-134; absolute IC50; 72 h. The essentials:
as §1

Another assay deals with U-118. The description is as above. It is filed as cell-based. As to conditions: brain carcinoma cell line U-118; absolute IC50; 72 h. Summed up:
as §1

For the next assay, the system named is Panc-1. Described as above. The assay is classed as cell-based. The note with it: Homo sapiens; pancreatic carcinoma cell line Panc-1; absolute IC50; 72 h. The essentials: as §1
The next assay relates to T47D. Described as above. The assay is classed as cell-based. The note with it: Homo sapiens; breast carcinoma cell line T47D; absolute IC50; 72 h. The essentials:
as §1

The next assay concerns BT-474. The assay is described as above. The note with it: Homo sapiens; breast carcinoma cell line BT-474; absolute IC50; 72 h. The assay is classed as cell-based. The essentials:
as §1

The subject of another assay is SK-N-AS. Described as above. The assay is classed as cell-based. The note with it: Homo sapiens; brain carcinoma cell line SK-N-AS; absolute IC50; 72 h. Summed up:
as §1

The next assay relates to MDA-MB-436. The description is as above. The assay is classed as cell-based. As to conditions: Homo sapiens; breast carcinoma cell line MDA-MB-436; absolute IC50; 72 h. The essentials:
as §1

Assay [2] addresses T1, ABL1(E255K)-phosphorylated (Homo sapiens, UniProt P00519, E255K).
T1 construct: purchased Eurofins (KINOMEscan); host or cells: T7 phage in BL21-derived E. coli, or HEK-293
The experiment in a line: KINOMEscan competition binding assay, Kd. The note with it: 11-point 3-fold dilution series. On the procedure: (§2) Selected compounds were screened for kinase inhibition using the KINOMEscan™ assay (Eurofins) which is based on a competition binding assay that quantitatively measures the ability of a compound to compete with an immobilized, active-site directed ligand. The assay was performed by combining three components: DNA-tagged kinase; immobilized ligand; and the test compound. The ability of the test compound to compete with the immobilized ligand was measured via quantitative PCR of the DNA tag.
(§3) Kinase-tagged T7 phage strains were prepared in an E. coli host derived from the BL21 strain. E. coli were grown to log-phase and infected with T7 phage and incubated with shaking at 32° C. until lysis. The lysates were centrifuged and filtered to remove cell debris. The remaining kinases were produced in HEK-293 cells and subsequently tagged with DNA for qPCR detection. Streptavidin-coated magnetic beads were treated with biotinylated small molecule ligands for 30 minutes at room temperature to generate affinity resins for kinase assays. The liganded beads were blocked with excess biotin and washed with blocking buffer (SeaBlock (Pierce), 1% BSA, 0.05% Tween 20, 1 mM DTT) to remove unbound ligand and to reduce non-specific binding. Binding reactions were assembled by combining kinases, liganded affinity beads, and test compounds in 1× binding buffer (20% SeaBlock, 0.17×PBS, 0.05% Tween 20, 6 mM DTT). Test compounds were prepared as 111× stocks in 100% DMSO. Kds were determined using an 11-point 3-fold compound dilution series with three DMSO control points. All compounds for Kd measurements are distributed by acoustic transfer (non-contact dispensing) in 100% DMSO. The compounds were then diluted directly into the assays such that the final concentration of DMSO was 0.9%. All reactions performed in polypropylene 384-well plate. Each was a final volume of 0.02 ml. The assay plates were incubated at room temperature with shaking for 1 hour and the affinity beads were washed with wash buffer (1×PBS, 0.05% Tween 20). The beads were then resuspended in elution buffer (1×PBS, 0.05% Tween 20, 0.5 μM nonbiotinylated affinity ligand) and incubated at room temperature with shaking for 30 minutes. The kinase concentration in the eluates was measured by qPCR.
(§4) Binding constants (Kds) were calculated with a standard dose-response curve using the Hill equation: Response=Background+[Signal−Background/i+(Kd^Hill Slope/Dose^Hill Slope)]. The Hill Slope was set to −1. Curves were fitted using a non-linear least square fit with the Levenberg-Marquardt algorithm.

A further assay has as its target T2, ABL1-phosphorylated (Homo sapiens, UniProt P00519).
T2 construct: purchased Eurofins (KINOMEscan); host or cells: T7 phage in BL21-derived E. coli, or HEK-293
The assay is described as follows: KINOMEscan competition binding assay, Kd. As to conditions: 11-point 3-fold dilution series. Here is the method:
as §2, §3, §4

For a further assay, the target named is T3, ABL1-nonphosphorylated (Homo sapiens, UniProt P00519).
T3 construct: purchased Eurofins (KINOMEscan); host or cells: T7 phage in BL21-derived E. coli, or HEK-293
The assay is described as follows: KINOMEscan competition binding assay, Kd. The note with it: 11-point 3-fold dilution series. On the procedure:
as §2, §3, §4

A further assay deals with parental H69 cells. The experiment in a line: Cell viability assay (CellTiter-Blue/CellTiter-Glow). It is filed as cell-based. The note with it: Homo sapiens, NCI-H69; SCLC parental H69 cells. The essentials:
as §1

T3 sequence (P00519 whole entry): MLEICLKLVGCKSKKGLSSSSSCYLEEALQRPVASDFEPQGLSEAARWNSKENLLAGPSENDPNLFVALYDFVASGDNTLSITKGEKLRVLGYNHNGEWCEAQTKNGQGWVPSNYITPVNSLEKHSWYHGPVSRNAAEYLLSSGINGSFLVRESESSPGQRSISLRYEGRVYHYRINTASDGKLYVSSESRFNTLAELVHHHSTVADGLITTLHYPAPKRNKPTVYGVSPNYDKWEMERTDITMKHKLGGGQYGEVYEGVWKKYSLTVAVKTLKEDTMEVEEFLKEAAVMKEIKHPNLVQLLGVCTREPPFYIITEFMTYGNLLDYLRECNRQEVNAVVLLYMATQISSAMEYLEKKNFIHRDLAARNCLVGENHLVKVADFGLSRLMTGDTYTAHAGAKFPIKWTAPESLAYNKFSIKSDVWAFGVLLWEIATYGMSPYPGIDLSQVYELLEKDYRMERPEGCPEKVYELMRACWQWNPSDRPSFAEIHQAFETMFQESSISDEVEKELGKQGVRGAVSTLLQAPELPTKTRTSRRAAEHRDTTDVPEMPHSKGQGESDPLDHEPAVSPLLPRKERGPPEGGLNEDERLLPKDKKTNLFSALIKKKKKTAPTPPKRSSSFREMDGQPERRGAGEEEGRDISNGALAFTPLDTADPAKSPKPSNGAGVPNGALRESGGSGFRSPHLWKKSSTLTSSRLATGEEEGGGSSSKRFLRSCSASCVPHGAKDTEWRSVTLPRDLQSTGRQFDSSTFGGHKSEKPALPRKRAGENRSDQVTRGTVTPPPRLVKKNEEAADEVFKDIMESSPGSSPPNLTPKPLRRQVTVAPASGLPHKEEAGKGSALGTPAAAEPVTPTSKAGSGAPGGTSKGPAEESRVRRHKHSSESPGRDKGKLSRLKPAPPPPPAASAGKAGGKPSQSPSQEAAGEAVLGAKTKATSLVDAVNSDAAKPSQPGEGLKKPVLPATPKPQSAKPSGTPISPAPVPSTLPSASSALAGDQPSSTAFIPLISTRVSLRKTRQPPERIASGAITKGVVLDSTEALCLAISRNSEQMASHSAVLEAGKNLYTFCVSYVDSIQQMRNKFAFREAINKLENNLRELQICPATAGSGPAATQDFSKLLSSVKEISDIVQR
T2 sequence (P00519 whole entry): as above
T1 sequence (P00519 whole entry E255K): as the sequence (P00519 whole entry) above, with E255K counted along it

Turning to `O=c1cc(-c2ccc(CCCC[P+](c3ccccc3)(c3ccccc3)c3ccccc3)cc2)oc2c3c(ccc12)OCO3.[Br-]` [SND123, 4-[4-(6-oxo-[1,3]dioxolo[4,5-h]chromen-8-yl)phenyl]butyl-triphenylphosphonium bromide], the IC50 amounted to 11.8 µM in assay [1]; 2.5 µM in the assay with ZR-75-1; 1.8 µM with CHP-134; 8.3 µM in the assay on U-118; 2.32 µM with Panc-1; 1.7 µM with T47D. Further, the IC50 with BT-474 was found to be 1.6 µM; with SK-N-AS, 3.5 µM; in the assay with MDA-MB-436, 2.3 µM. The Kd in assay [2] was 0.97 µM; on ABL1-phosphorylated it was 0.86 µM; at ABL1-nonphosphorylated, 1.3 µM.
Regarding `CCNC(=O)Oc1ccc2c(=O)cc(-c3ccc(CCCC[P+](c4ccccc4)(c4ccccc4)c4ccccc4)cc3)oc2c1O.[Br-]` [SND126A, 4-[4-[7-(Ethylcarbamoyloxy)-8-hydroxy-4-oxo-chromen-2-yl]phenyl]butyltriphenylphosphonium bromide], the concentration for half-maximal inhibition (IC50) in the assay on parental H69 cells was found to be 3.63 µM.
The compound `COc1c(O)ccc2c(=O)cc(-c3ccc(CCCC[P+](c4ccccc4)(c4ccccc4)c4ccccc4)cc3)oc12.[Br-]` [SND140, (4-(4-(7-hydroxy-8-methoxy-4-oxo-4H-chromen-2-yl)phenyl)butyl)triphenylphosphonium bromide] returned a concentration for half-maximal inhibition (IC50) in assay [1] of 14.6 µM. Moreover, the dissociation constant (Kd) turned out to be 0.66 µM in [2], 0.7 µM at ABL1-phosphorylated and 1.5 µM at ABL1-nonphosphorylated.
